Patent US7858825B2, “Acid and base stable diphenylmethanol derivatives and methods of use” (Colorado State University Research Foundation, priority 2007, dated 2010)

Legend:
[1] = Stability and cleavage of linker 16 esters; assay type: physicochemical
Method: One of the linkers of the invention, (2-chloro-4-methoxyphenyl)(2,4-dichlorophenyl)methanol 16 was used to immobilize carboxylic acids. The linker was stable under a Boc-deprotection conditions (TsOH.H2O/THF—CH2Cl2). In addition, unlike photolytic (350 nm, 72 h) or Pd-mediated or base-catalyzed cleavage of linkers, the esters of linker 16 was efficiently be cleaved via volatile acids such as 30% TFA/CH2Cl2 or HF.pyridine within 1 h. The progress of each step was conveniently be monitored by LC-MS after the treatment of such Brønsted acids followed by evaporation of volatiles.

[2] = Cleavage (deprotection) of the esters 4d and of trifluoroacetate 5a; assay type: physicochemical
Description: Thus, compounds of the invention enabled a wide range of organic reactions for the generation of libraries of MraY inhibitors in solution (Scheme III). Compounds of the invention, e.g., (2,6-dicholoro-4-methoxyphenyl)(2,4-dichlorophenyl)methanol, can also be used as linkers to immobilize carboxylic acids, amines, alcohols, as well as other functional groups which can, however, be cleaved by 20% TFA.
The trifluoroacetate 5a was also stable under most acidic conditions tested in Table 1 and SiO2, but could easily be cleaved by aq NH3 in THF-MeOH within 3 h to regenerate 3d in quantitative yield (Scheme 2-2).
The ester of 3d was dissolved in 20% TFA in CH2Cl2 (0.3 M) and kept for 1 h at rt. Volatiles were evaporated in vaccuo to provide the carboxylic acid and 5a. The carboxylic acid was separated from 5d by a silica gel plug (10:1, hexanes:EtOAc to 5:1, CHCl3:MeOH) or a back-extraction procedure [solvent system: EtOAc-water (for the extraction of 5d under a basic condition (NaHCO3), CHCl3-water (for the extraction of the carboxylic acid under an acidic condition (dil. HCl)].

| time for cleavage of the esters of the linker ([1]; 30% TFA/CH2Cl2 or HF.pyridine) [h] | stability of linker ([1]; Boc-deprotection conditions (TsOH.H2O/THF—CH2Cl2)) | time for cleavage to regenerate 3d ([2]; aq NH3 in THF-MeOH) [h] | stability under acidic conditions ([2]; most acidic conditions tested in Table 1 and SiO2) | SMILES |
| --- | --- | --- | --- | --- |
| ≤ 1 | stable | – | – | COc1ccc(C(O)c2ccc(Cl)cc2Cl)c(Cl)c1 (stereo not shown) [compound 16, (2-chloro-4-methoxyphenyl)(2,4-dichlorophenyl)methanol] |
| – | – | ≤ 3 | stable | COc1cc(Cl)c(C(OC(=O)C(F)(F)F)c2ccc(Cl)cc2Cl)c(Cl)c1 (stereo not shown) [5a, (2,6-dichloro-4-methoxyphenyl)(2,4-dichlorophenyl)methyl 2,2,2-trifluoroacetate] |
